Results: PubChem BioAssay (NCI)
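A five-concentration, 48-hour dose response in 96-well plates underlies each endpoint, interpolated linearly between surrounding concentrations. GI50 marks 50% less growth. TGI: concentration producing complete growth inhibition.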

Experiments:
Assay in all cases: NCI tumour cell line growth inhibition, 48 h
SK-MEL-2 melanoma = system: SK-MEL-2 melanoma
RXF 393 renal = system: RXF 393 renal
BT-549 breast = system: BT-549 breast
SK-MEL-5 melanoma = system: SK-MEL-5 melanoma
OVCAR-3 ovarian = system: OVCAR-3 ovarian
PC-3 prostate = system: PC-3 prostate
SNB-19 CNS = system: SNB-19 CNS
OVCAR-8 ovarian = system: OVCAR-8 ovarian
T-47D breast = system: T-47D breast
UACC-257 melanoma = system: UACC-257 melanoma
SN12C renal = system: SN12C renal
OVCAR-4 ovarian = system: OVCAR-4 ovarian
HS 578T breast = system: HS 578T breast
NCI-H522 lung = system: NCI-H522 lung
U251 CNS = system: U251 CNS
DU-145 prostate = system: DU-145 prostate
UO-31 renal = system: UO-31 renal
HOP-92 NSCLC = system: HOP-92 NSCLC
CAKI-1 renal = system: CAKI-1 renal
SK-MEL-28 melanoma = system: SK-MEL-28 melanoma
M14 melanoma = system: M14 melanoma
NCI-H23 lung = system: NCI-H23 lung
HCC-2998 colon = system: HCC-2998 colon
SK-OV-3 ovarian = system: SK-OV-3 ovarian
SNB-75 CNS = system: SNB-75 CNS
NCI-H460 lung = system: NCI-H460 lung
MDA-MB-231 breast = system: MDA-MB-231 breast
786-0 renal = system: 786-0 renal
A549 NSCLC = system: A549 NSCLC
RPMI-8226 leukemia = system: RPMI-8226 leukemia
TK-10 renal = system: TK-10 renal
MALME-3M melanoma = system: MALME-3M melanoma
UACC-62 melanoma = system: UACC-62 melanoma
SF-539 CNS = system: SF-539 CNS
OVCAR-5 ovarian = system: OVCAR-5 ovarian
LOX IMVI melanoma = system: LOX IMVI melanoma
SF-268 CNS = system: SF-268 CNS
A498 renal = system: A498 renal
KM12 colon = system: KM12 colon
HL-60(TB) leukemia = system: HL-60(TB) leukemia
EKVX NSCLC = system: EKVX NSCLC
NCI-H226 lung = system: NCI-H226 lung
MOLT-4 leukemia = system: MOLT-4 leukemia
ACHN renal = system: ACHN renal
CCRF-CEM leukemia = system: CCRF-CEM leukemia
HCT-116 colon = system: HCT-116 colon
HT29 colon = system: HT29 colon
SW-620 colon = system: SW-620 colon
MCF7 breast = system: MCF7 breast
HCT-15 colon = system: HCT-15 colon
SF-295 CNS = system: SF-295 CNS
HOP-62 NSCLC = system: HOP-62 NSCLC
MDA-MB-435 = system: MDA-MB-435
IGROV1 ovarian = system: IGROV1 ovarian
NCI/ADR-RES ovarian = system: NCI/ADR-RES ovarian
K-562 leukemia = system: K-562 leukemia

Structure (SMILES): Cc1cc(C)c2c(c1)CC1(Cc3ccc(C)c(C)c3C1=O)C2=O (stereo not drawn)
- TGI (SK-MEL-2 melanoma): > 100 µM
- TGI (RXF 393 renal): > 100 µM
- TGI (BT-549 breast): > 100 µM
- TGI (SK-MEL-5 melanoma): > 100 µM
- TGI (OVCAR-3 ovarian): > 100 µM
- TGI (PC-3 prostate): > 100 µM
- TGI (SNB-19 CNS): > 100 µM
- TGI (OVCAR-8 ovarian): > 100 µM
- TGI (T-47D breast): > 100 µM
- TGI (UACC-257 melanoma): > 100 µM
- TGI (SN12C renal): > 100 µM
- TGI (OVCAR-4 ovarian): > 100 µM
- TGI (HS 578T breast): > 100 µM
- TGI (NCI-H522 lung): > 100 µM
- TGI (U251 CNS): > 100 µM
- TGI (DU-145 prostate): > 100 µM
- TGI (UO-31 renal): > 100 µM
- TGI (HOP-92 NSCLC): > 100 µM
- TGI (CAKI-1 renal): > 100 µM
- TGI (SK-MEL-28 melanoma): > 100 µM
- TGI (M14 melanoma): > 100 µM
- TGI (NCI-H23 lung): > 100 µM
- TGI (HCC-2998 colon): > 100 µM
- TGI (SK-OV-3 ovarian): > 100 µM
- TGI (SNB-75 CNS): > 100 µM
- TGI (NCI-H460 lung): > 100 µM
- TGI (MDA-MB-231 breast): > 100 µM
- TGI (786-0 renal): > 100 µM
- TGI (A549 NSCLC): > 100 µM
- TGI (RPMI-8226 leukemia): > 100 µM
- TGI (TK-10 renal): > 100 µM
- TGI (MALME-3M melanoma): > 100 µM
- TGI (UACC-62 melanoma): > 100 µM
- TGI (SF-539 CNS): > 100 µM
- TGI (OVCAR-5 ovarian): > 100 µM
- TGI (LOX IMVI melanoma): > 100 µM
- TGI (SF-268 CNS): > 100 µM
- TGI (A498 renal): > 100 µM

Structure (SMILES): CCCCCCCCCCCCCCCCCCOc1ccccc1CC(=O)OCC[N+](CC)(CC)CC
- GI50 (SK-MEL-2 melanoma): 1.28 µM
- TGI (SK-MEL-2 melanoma): 3.13 µM
- GI50 (RXF 393 renal): 0.924 µM
- TGI (RXF 393 renal): 2.06 µM
- GI50 (BT-549 breast): 1.95 µM
- TGI (BT-549 breast): 9.22 µM
- GI50 (KM12 colon): 1.42 µM
- TGI (KM12 colon): 3.86 µM
- GI50 (SK-MEL-5 melanoma): 0.942 µM
- TGI (SK-MEL-5 melanoma): 1.75 µM
- GI50 (OVCAR-3 ovarian): 1.73 µM
- TGI (OVCAR-3 ovarian): 6.33 µM
- GI50 (PC-3 prostate): 1.2 µM
- TGI (PC-3 prostate): 3.18 µM
- GI50 (SNB-19 CNS): 1.52 µM
- TGI (SNB-19 CNS): 5.6 µM
- GI50 (HL-60(TB) leukemia): 0.926 µM
- TGI (HL-60(TB) leukemia): 2.78 µM
- GI50 (OVCAR-8 ovarian): 1.69 µM
- TGI (OVCAR-8 ovarian): 8.3 µM
- GI50 (T-47D breast): 1.48 µM
- TGI (T-47D breast): 8.16 µM
- GI50 (UACC-257 melanoma): 1.42 µM
- TGI (UACC-257 melanoma): 5.1 µM
- GI50 (EKVX NSCLC): 2.15 µM
- TGI (EKVX NSCLC): 8.44 µM
- GI50 (SN12C renal): 1.3 µM
- TGI (SN12C renal): 5.68 µM
- GI50 (NCI-H226 lung): 1.27 µM
- TGI (NCI-H226 lung): 5.64 µM
- GI50 (MOLT-4 leukemia): 1.26 µM
- TGI (MOLT-4 leukemia): 3.07 µM
- GI50 (OVCAR-4 ovarian): 1.75 µM
- TGI (OVCAR-4 ovarian): 7.42 µM
- GI50 (ACHN renal): 4.39 µM
- TGI (ACHN renal): 11.3 µM
- GI50 (HS 578T breast): 1.34 µM
- TGI (HS 578T breast): 4.55 µM
- GI50 (NCI-H522 lung): 1.53 µM
- TGI (NCI-H522 lung): 6.84 µM
- GI50 (U251 CNS): 1.24 µM
- TGI (U251 CNS): 3.56 µM
- GI50 (DU-145 prostate): 2.07 µM
- TGI (DU-145 prostate): 7.99 µM
- GI50 (CCRF-CEM leukemia): 1.48 µM
- TGI (CCRF-CEM leukemia): 13.1 µM
- GI50 (HCT-116 colon): 1.61 µM
- TGI (HCT-116 colon): 7.76 µM
- GI50 (UO-31 renal): 5.52 µM
- TGI (UO-31 renal): 14.5 µM
- GI50 (HOP-92 NSCLC): 1.1 µM
- TGI (HOP-92 NSCLC): 3.52 µM
- GI50 (HT29 colon): 1.63 µM
- TGI (HT29 colon): 8.58 µM
- GI50 (CAKI-1 renal): 1.42 µM
- TGI (CAKI-1 renal): 4.47 µM
- GI50 (SK-MEL-28 melanoma): 1.9 µM
- TGI (SK-MEL-28 melanoma): 7.55 µM
- GI50 (SW-620 colon): 1.82 µM
- TGI (SW-620 colon): 7.33 µM
- GI50 (M14 melanoma): 1.53 µM
- TGI (M14 melanoma): 5.4 µM
- GI50 (MCF7 breast): 1.35 µM
- TGI (MCF7 breast): 5.25 µM
- GI50 (NCI-H23 lung): 1.16 µM
- TGI (NCI-H23 lung): 4.09 µM
- GI50 (HCC-2998 colon): 1.22 µM
- TGI (HCC-2998 colon): 3.9 µM
- GI50 (SK-OV-3 ovarian): 3 µM
- TGI (SK-OV-3 ovarian): 12.1 µM
- GI50 (HCT-15 colon): 4.39 µM
- TGI (HCT-15 colon): 13.1 µM
- GI50 (SNB-75 CNS): 0.968 µM
- TGI (SNB-75 CNS): 4.23 µM
- GI50 (NCI-H460 lung): 1.73 µM
- TGI (NCI-H460 lung): 6.34 µM
- GI50 (MDA-MB-231 breast): 1.05 µM
- TGI (MDA-MB-231 breast): 2.7 µM
- GI50 (786-0 renal): 1.64 µM
- TGI (786-0 renal): 7.54 µM
- GI50 (A549 NSCLC): 1.44 µM
- TGI (A549 NSCLC): 7.42 µM
- GI50 (SF-295 CNS): 1.27 µM
- TGI (SF-295 CNS): 5.11 µM
- GI50 (HOP-62 NSCLC): 1.76 µM
- TGI (HOP-62 NSCLC): 8.32 µM
- GI50 (MDA-MB-435): 1.55 µM
- TGI (MDA-MB-435): 6.2 µM
- GI50 (TK-10 renal): 1.45 µM
- TGI (TK-10 renal): 7.65 µM
- GI50 (MALME-3M melanoma): 1.31 µM
- TGI (MALME-3M melanoma): 3.77 µM
- GI50 (IGROV1 ovarian): 0.923 µM
- TGI (IGROV1 ovarian): 1.97 µM
- GI50 (UACC-62 melanoma): 1.16 µM
- TGI (UACC-62 melanoma): 3.37 µM
- GI50 (SF-539 CNS): 1.62 µM
- TGI (SF-539 CNS): 5.82 µM
- GI50 (NCI/ADR-RES ovarian): 7.58 µM
- TGI (NCI/ADR-RES ovarian): 17.5 µM
- GI50 (OVCAR-5 ovarian): 2 µM
- TGI (OVCAR-5 ovarian): 8.52 µM
- GI50 (K-562 leukemia): 1.5 µM
- TGI (K-562 leukemia): 50 µM
- GI50 (LOX IMVI melanoma): 0.881 µM
- TGI (LOX IMVI melanoma): 1.66 µM
- GI50 (SF-268 CNS): 1.48 µM
- TGI (SF-268 CNS): 6.32 µM
- GI50 (A498 renal): 2.13 µM
- TGI (A498 renal): 8.49 µM
